Test results: US10391070B2, “Compositions and methods for treating neurological diseases or injury” (MUSC FOUNDATION FOR RESEARCH DEVELOPMENT, priority 2012, dated 2019)
Like-named read-outs stand apart in the source and are kept apart here.

Assays:
Assay type in all cases: cell-based, mouse
HT22 cells [1] = experiment: In vitro neurotoxicity without glutamate (MTS cell viability); settings: for Safety Index TC50/PC50: HT22 cells
Description: The HT22 neuronal cell line is a subclone of HT4, derived from the mouse hippocampus (Morimoto and Koshland, 1990). […] HT22 cells were used. The cells were grown in Dulbecco's Modified Eagle's medium (DMEM/high glucose) supplemented with 10% fetal bovine serum (Hyclone) and 5 mL Antibiotic-Antimycotic (Amphotericin B, Penicillin, and Streptomycin; Invitrogen) at 37° C. in 5% CO2.
Cell viability was assessed by the ability of the viable cells to metabolize 3-(4,5-dimethylthiazol-2-yl)-5-(3-carboxymethoxyphenyl)-2(4-sulfophenyl)2-H-tetrazolium, inner salt (MTS), as described previously (Cory et al., 1991). The metabolism of tetrazolium salts is often used to measure cellular proliferation, but in the system used here, it has been previously shown to correlate well with cell viability as determined by trypan blue exclusion and colony-forming assays (Davis and Maher, 1994). Briefly, HT-22 cells were seeded onto 96-well plates at 5.0×10^3 cells per well in 75 μL of medium and maintained at 37° C. in 5% CO2 overnight prior to the initiation of experimental treatments. For glutamate toxicity testing, cells were subsequently treated with 25 μL of medium containing glutamate (monosodium glutamate, Sigma, 1 M stock concentration in media, to achieve a final concentration of 10 mM) plus inhibitors (stock in DMSO) and maintained at 37° C. in 5% CO2. For t-BuOOH toxicity testing, cells were subsequently treated with 25 μL of medium containing t-BuOOH (Sigma, 10 mM stock concentration, to achieve a final concentration of 50 μM) plus inhibitors (stock in DMSO) and maintained at 37° C. in 5% CO2 for 3 hours, after which the media was removed, cells washed gently with HBSS, the media replaced with standard culture media, and the cells returned to incubation at 37° C. in 5% CO2. For both glutamate and t-BuOOH treatments, 10 μl of MTS solution was added to each well 24 hrs after initial treatment, and the cells were maintained in growth medium for 2 h at 37° C. Absorbance at 490 nm was subsequently measured by a SpectraMax 190 plate reader (Molecular Devices). The growth medium without cells in the presence of MTS solution was used as solution background and untreated cells were considered the controls. Cell viability was calculated as a percentage compared with untreated controls. EC50 determinations were based on 12-point titrations using GraphPad Prism, and each experiment was repeated at least four times. Morphology of HT22 cells following treatments was determined by phase-contrast microscopy. Digital images of cells grown on cell culture plates were captured at 10× magnification.

HT22 cells [2] = experiment: Mitochondrial morphology and superoxide generation (MitoSOX, Mitotracker); settings: HT22, high extracellular glutamate, co-treatment
Description: In order to evaluate the source of the ROS generation, fluorescence microscopy was used to image HT22 using the fluorogenic dyes Mitotracker Deep Red (DR) and MitoSOX Red (Invitrogen). Mitotracker DR is a cell permeant dye that accumulates in active, polarized mitochondria. […] Briefly, HT22 cells were seeded onto black walled 96-well plates at 5.0×10^3 cells per well in 75 μL of medium and maintained at 37° C. in 5% CO2 overnight prior to the initiation of experimental treatments. Cells were subsequently treated with 25 μL of medium containing glutamate (monosodium glutamate, Sigma-Aldrich, 1 M stock concentration in media, to achieve a final concentration of 10 mM) plus inhibitors (stock in DMSO) and maintained at 37° C. in 5% CO2. After 8 hrs, MitoSOX Red (5 μM) and Mitotracker DR (10 nM) were added to achieve the indicated final concentrations. Cells were allowed to incubate for 20 minutes and then washed twice with Hanks Balanced Salt Solution (HBSS; Hyclone; CaCl2 1.26 mM, MgCl2-6H2O 0.493 mM, MgSO4-7H2O 0.407 mM, KCl 5.33 mM, KH2PO4 0.441 mM, NaHCO3 4.17 mM, NaCl 137.93 mM, Na2HPO4 0.338 mM, D-Glucose 5.56 mM), with a final addition of 100 μL of HBSS in which the cells were visualized. Cells were immediately visualized using an InCell 2000 Analyzer (GE) with a 40× objective and a Cy5/Cy5 excitation/emission filter set for Mitotracker DR and a YFP/Cy3 filter set for MitoSOX Red. Image processing was performed using ImageJ, and for all images, the microscope and image processing settings, such as levels, brightness, contrast, and exposure time were held constant across all treatment conditions.

HT22 cells [3] = experiment: Intracellular ROS measurement (Rho123, CM-H2DCFDA); settings: HT22, 10 mM glutamate 8 hrs, 250 nM
Description: Intracellular generation of ROS was evaluated by spectrofluorometry using the membrane-permeable compound dihydrorhodamine 123 (Rho123; Invitrogen), and images were collected using 5-(and -6)-chloromethyl-2′,7′-dichlorodihydrofluorescein diacetate, acetyl ester (CM-H2DCFDA; Invitrogen). Briefly, HT-22 cells were seeded onto black walled 96-well plates at 5.0×10^3 cells per well in 75 μL of medium and maintained at 37° C. in 5% CO2 overnight prior to the initiation of experimental treatments. Cells were subsequently treated with 25 μL of medium containing glutamate (monosodium glutamate, Sigma, 1 M stock concentration in media, to achieve a final concentration of 10 mM) plus inhibitors (stock in DMSO) and maintained at 37° C. in 5% CO2. After 8 hrs, Rho123 (5 μM), CM-H2DCFDA (1 μM), or MitoSox (5 μM) and Mitotracker DR (10 nM) was added to achieve the indicated final concentrations. Cells were allowed to incubate for 20 minutes and then washed twice with Hanks Balanced Salt Solution (HBSS; Hyclone; CaCl2 1.26 mM, MgCl2-6H2O 0.493 mM, MgSO4-7H2O 0.407 mM, KCl 5.33 mM, KH2PO4 0.441 mM, NaHCO3 4.17 mM, NaCl 137.93 mM, Na2HPO4 0.338 mM, D-Glucose 5.56 mM), with a final addition of 100 μL of HBSS in which the cells were visualized. Fluorescence of the oxidized Rho123 was measured using a Fluoroskan Ascent spectrofluorometer (Labsystems). Peak excitation and emission wavelengths were 500 and 536, respectively. For fluorescent imaging of the oxidation product of CM-H2DCFDA, cells were immediately visualized using an InCell 2000 Analyzer (GE) with a 40× objective and a FITC excitation/emission filter set. Image processing was performed using ImageJ, and for all images, the microscope and image processing settings, such as levels, brightness, contrast, and exposure time were held constant across all treatment conditions.

HT22 cells [4] = experiment: Glutathione determination in glutamate-treated cells; settings: HT22, 10 mM glutamate 8 hrs, 500 nM
Description: The content of total glutathione (reduced and oxidized) in the supernatant of cell homogenate was measured using the glutathione assay kit (Cayman Chemical) in microtiter plate assay, which utilizes an enzymatic recycling method, using glutathione reductase, for the quantification of glutathione. The sulfhydryl group of glutathione reacted with 5,5′-dithiobis-2-nitrobenzoic acid (DTNB) and produced a yellow-colored 5-thio-2-nitrobenzoic acid (TNB), which was measured at 405 nm.

[5] = HT22 cells without glutamate, 24 hrs, MTS, concentration producing 50% toxicity, read-out: Toxicity TC50

Row | Compound | Safety Index TC50/PC50 (HT22 cells [1]) | CC50 (HT22 cells [1]; [5]) [µM] | mitochondrial superoxide generation and mitochondrial fragmentation (HT22 cells [2]) | ROS accumulation (Rho123) (HT22 cells [3]) | depletion of total cellular GSH (HT22 cells [4]) | CC50 (HT22 cells [1]) [µM] | cellular toxicity (HT22 cells [1])
1 | C#CCNC1=CC(=O)c2ccccc2C1=O [Compound 2h, 2-(prop-2-yn-1-ylamino)naphthalene-1,4-dione] | 442 | 53 |  |  |  |  | 
2 | O=C1C=C(NCc2ccccc2)C(=O)c2ccccc21 [Compound 2j, 2-(benzylamino)naphthalene-1,4-dione] | 1,136 | > 100 | prevented these events | prevent the accumulation of ROS | does not prevent GSH |  | 
3 | O=C1C=C(NCc2cccc(Cl)c2)C(=O)c2ccccc21 [Compound 2q, 2-((3-chlorobenzyl)amino)naphthalene-1,4-dione] | 3,226 | > 100 | prevented these events | prevent the accumulation of ROS | does not prevent GSH |  | 
4 | CC1=CC(=O)c2ccccc2C1=O [VK3, menadione, reference compound] | 24 | 19 |  |  |  |  | 
5 | menaquinones [VK2, reference compound] | 231 |  | prevented these events | less effective | does not prevent GSH | > 100 | neither exhibited any signs of cellular toxicity
